In the NIST ThermoML archive (doi:10.1021/je025582+):

Conditions: Gas

FC(C(F)(F)F)C(F)(F)F [1,1,1,2,3,3,3-heptafluoropropane]
Conditions	mass density [kg/m3]
318.15 K, 122.2 kPa	8.07
318.15 K, 167.7 kPa	11.21
318.15 K, 230.1 kPa	15.57
318.15 K, 312 kPa	21.61
318.15 K, 421 kPa	30.01
318.15 K, 561.3 kPa	41.67
318.15 K, 734.2 kPa	57.85
321.15 K, 123.2 kPa	8.06
321.15 K, 169.3 kPa	11.2
321.15 K, 232.2 kPa	15.54
321.15 K, 315.4 kPa	21.58
321.15 K, 425.5 kPa	29.97
321.15 K, 568 kPa	41.61
321.15 K, 744.1 kPa	57.77
324.15 K, 124.4 kPa	8.05
324.15 K, 170.9 kPa	11.18
324.15 K, 234.2 kPa	15.53
324.15 K, 318.6 kPa	21.56
324.15 K, 430.2 kPa	29.93
324.15 K, 574.9 kPa	41.56
324.15 K, 754 kPa	57.71
327.15 K, 125.7 kPa	8.04
327.15 K, 172.6 kPa	11.17
327.15 K, 236.2 kPa	15.51
327.15 K, 321.9 kPa	21.53
327.15 K, 434.8 kPa	29.9
327.15 K, 581.5 kPa	41.52
327.15 K, 763.9 kPa	57.65
327.15 K, 982.1 kPa	80.04
330.15 K, 126.8 kPa	8.04
330.15 K, 132 kPa	8.39
330.15 K, 174.3 kPa	11.16
330.15 K, 181.5 kPa	11.64
330.15 K, 238.5 kPa	15.5
330.15 K, 248.3 kPa	16.17
330.15 K, 325.2 kPa	21.51
330.15 K, 338.6 kPa	22.45
330.15 K, 439.5 kPa	29.87
330.15 K, 457.7 kPa	31.17
330.15 K, 588.3 kPa	41.48
330.15 K, 611.2 kPa	43.28
330.15 K, 774.3 kPa	57.59
330.15 K, 803.6 kPa	60.09
330.15 K, 998.1 kPa	79.97
333.15 K, 128 kPa	8.03
333.15 K, 175.9 kPa	11.15
333.15 K, 240.7 kPa	15.48
333.15 K, 328.6 kPa	21.5
333.15 K, 444.3 kPa	29.85
333.15 K, 595.3 kPa	41.45
333.15 K, 784.6 kPa	57.55
333.15 K, 1013.2 kPa	79.91
336.15 K, 129 kPa	8.03
336.15 K, 177.7 kPa	11.14
336.15 K, 243.4 kPa	15.47
336.15 K, 331.9 kPa	21.49
336.15 K, 449.1 kPa	29.83
336.15 K, 602.5 kPa	41.42
336.15 K, 795.1 kPa	57.52
336.15 K, 1029.1 kPa	79.86
339.15 K, 130.1 kPa	8.02
339.15 K, 179.3 kPa	11.14
339.15 K, 245.7 kPa	15.47
339.15 K, 334.9 kPa	21.48
339.15 K, 454.4 kPa	29.82
339.15 K, 609.6 kPa	41.4
339.15 K, 804.6 kPa	57.49
339.15 K, 1044.6 kPa	79.83
339.15 K, 1310.5 kPa	110.84
342.15 K, 131.3 kPa	8.02
342.15 K, 181.1 kPa	11.14
342.15 K, 248.2 kPa	15.46
342.15 K, 338.6 kPa	21.47
342.15 K, 459.3 kPa	29.81
342.15 K, 616.9 kPa	41.39
342.15 K, 815 kPa	57.47
342.15 K, 1059.6 kPa	79.8
342.15 K, 1333.9 kPa	110.8
345.15 K, 132.5 kPa	8.02
345.15 K, 182.4 kPa	11.13
345.15 K, 250.2 kPa	15.46
345.15 K, 341.9 kPa	21.47
345.15 K, 464 kPa	29.81
345.15 K, 624.2 kPa	41.39
345.15 K, 826.2 kPa	57.46
345.15 K, 1074.6 kPa	79.79
345.15 K, 1358 kPa	110.79
380.15 K, 269.4 kPa	14.93
380.15 K, 369.5 kPa	20.73
380.15 K, 503.4 kPa	28.78
380.15 K, 683 kPa	39.96
380.15 K, 918.3 kPa	55.48
380.15 K, 1215.9 kPa	77.04
380.15 K, 1582.9 kPa	106.97
380.15 K, 2004.6 kPa	148.52
380.15 K, 2446.1 kPa	206.22
380.15 K, 2832.9 kPa	286.34
